According to paper PMC8583417, “Evaluation of the Antimicrobial Efficacy of N-Acetyl-L-Cysteine, Rhamnolipids, and Usnic Acid—Novel Approaches to Fight Food-Borne Pathogens” (International Journal of Molecular Sciences, 2021):

Assays:
S. aureus 1241 [1] = experiment: MIC for metabolic activity of preformed biofilm (MTT reduction assay); format: cell-based, Staphylococcus aureus; conditions: ≥80% inhibition, 20 h with substance
Protocol: (§1) Ten concentrations of NAC, RLs, and UA were tested to determine the minimum inhibitory concentration for planktonic growth, and subsequently, the six highest concentrations were applied on preformed biofilms to evaluate the biofilm eradication ability of the compounds. MIC was defined as the lowest substance concentration able to inhibit at least 80% of microbial growth (MICPC80 for planktonic cells, MICBC80 for further growth of biofilm cells), inhibit 80% of metabolic activity (MICBM80 for biofilm metabolic activity, MICMPB80 for metabolic activity of preformed biofilm), prevent biofilm formation by at least 80% (MICBF80 for biofilm formation), or reduce a preformed biofilm by at least 80% (MICBR80 for biofilm reduction). The results of MICs are summarized in Table 1 (planktonic cells) and Table 2 (biofilm-associated cells).
(§2) The determination of MICs was performed according to Chlumsky et al.. Briefly, 96-well flat-bottomed microtiter plates were inoculated with 75 µL (for biofilm formation) or 100 µL (for preformed biofilm) of bacterial suspension (A625nm 0.08 to 0.1) in technical triplicates and were then carefully mixed with the dilution series of the test substances (24 h cultivation at 25 °C for S. Infantis, 37 °C for other strains) or were directly cultivated to preform biofilms (18 h). For a positive control of bacterial growth, the inoculum was mixed with a pure sterile medium. Furthermore, the sterile medium was included in the plate as a marker of potential microbial contamination. To evaluate planktonic cells growth (MICPC80) and further growth of biofilm cells (MICBC80), the optical density of the content of the microtiter plates was measured spectrophotometrically at 625 nm before and after 24 h (for biofilm formation) of cultivation or before and after additional 20 h incubation with the tested compound (for preformed biofilm). The difference of A625nm was considered as a measure of the ability of cells to grow in the presence of the tested substances. To evaluate the inhibition of biofilm formation (MICBF80) and reduction in preformed biofilms (MICBR80), biomass was quantified using crystal violet staining, and its metabolic activity (MICBM80 and MICMPB80) was estimated by using the MTT (thiazyl tetrazolium bromide, Sigma-Aldrich, USA) reduction assay, both measured spectrophotometrically at 595 nm.
(§3) All inhibitions were calculated using the formula of Chlumsky et al. below (Equation (1)):(1) A625(595)nm inhibition (%)=A625(595)nm (control) – A625(595)nm(natural substance)/A625(595)nm (control)× 100 where A625(595)nm (control) is the absorbance of bacterial suspension/biofilm itself, and A625(595)nm(natural substance) is the absorbance of the bacterial suspension/biofilm with the added natural substance (NAC, RLs, and UA).
(§4) When the minimum inhibitory concentration could not be determined, the MIC was established as >the highest tested concentration for NAC, RLs, and UA.

S. aureus 816 [2] = experiment: as above; format: cell-based, Staphylococcus aureus; conditions: for MICMPB80: ≥80% inhibition, 20 h with substance
Protocol: as §1, §2, §3, §4

E. coli 693/17 = experiment: MIC for biofilm formation (crystal violet staining); format: cell-based, Escherichia coli; conditions: for MICBF80: ≥80% prevention, 24 h
Protocol: as §1, §2, §3, §4

E. coli 683/17 = experiment: as above; format: cell-based, Escherichia coli; conditions: for MICBF80: ≥80% prevention, 24 h
Protocol: as §1, §2, §3, §4

S. Infantis S59 = experiment: MIC for further growth of biofilm cells, preformed biofilm (A625nm); format: cell-based, Salmonella enterica Infantis; conditions: for MICBC80: ≥80% inhibition, 18 h preformed biofilm, 20 h with substance
Protocol: as §1, §2, §3, §4

S. aureus 1241 [3] = experiment: CLSM analysis, biofilm removal (preformed biofilm); format: cell-based, Staphylococcus aureus; conditions: 20 h exposure, mean ± SD; for Thickness (µm) MICBM80: substance at its MIC; for Thickness (µm) subCBM80: substance at subinhibitory concentration
Protocol: (§5) Biofilm prevention and removal analyses were performed using previously determined minimum inhibitory and subinhibitory concentrations for metabolic activity (MICBM80, subCBM80; MICMPB80, subCMPB80) of NAC, RLs, and UA specific for each tested strain. Selected concentrations were used to evaluate the inhibition of biofilm formation (biofilm prevention) and the reduction in previously formed biofilms (biofilm removal) for the same set of microorganisms, with the exception of S. Infantis, which was excluded from the analysis due to its inability to form biofilm in the selected microtiter plate. Biofilm prevention and removal were observed using CLSM with specific staining to distinguish between live and membrane-compromised cells. Images were analyzed to evaluate (i). the total volume of the biomass, (ii). ratios of live and membrane-compromised cells, and (iii). to calculate biofilm volume reduction for individual organisms after the respective treatment types. The total biofilm volume was normalized by the area of the well and expressed as an average biofilm thickness. Complete data are provided in Supplementary Materials (Tables S1–S8).
(§6) At first, bacterial suspensions were cultivated in microtiter plates to produce overnight biofilms (18 h). […] cells were then washed out, and the remaining biofilms were further cultivated for an additional 20 h with selected compounds. Following biofilm cultivation, biomass was observed using CLSM with live/membrane-compromised cell staining. Biomass images from biofilm removal treatments were similar to results from biofilm prevention, where biomass was highly diversified across the bacterial species and strains. Visually, biomass images were fairly consistent within the quadruplicates for each tested organism. Non-treated biofilms of S. aureus contained consistent biomass spread across the well (S. aureus 816) or grown around the edges (S. aureus 1241). […] PI staining identified membrane-compromised cells spread across S. aureus 816 biomass and incorporated in the edge of biomass and/or in the central part of the well (Figure 4B,C). […] Membrane-compromised cells appeared contained around the edges (S. aureus 1241), disturbed across the well (in both strains of L. monocytogenes), or in separated biomass in the central part of the well (in both strains of E. coli when treated with the subinhibitory concentration of RLs) (Figure 4D,E).
(§7) For both inhibition and reduction of biofilms, overnight cultures from BHI were diluted in TSB + 1% Glc to reach an absorbance of 0.08 to 0.1 at 625 nm. The inoculum (150 µL) was transferred into wells of the 96-well flat-bottomed Ibidiμ-Plate (Ibidi, Gräfelfing, Germany) and mixed with 150 µL of each of the three tested substances in technical quadruplicates, followed by incubation at 37 °C for 24 h. Simultaneously, the prepared bacterial suspensions were inoculated to an additional microtiter plate (200 µL) and allowed to form biofilm overnight (18 h at 37 °C). After the incubation, the content of the well was drained off, and 200 µL of each of the three tested substances was added to the plate, which was then incubated for an additional 20 h. The used concentrations of the substances represented the subinhibitory and minimum inhibitory concentrations for metabolic activity (subCBM80, MICBM80; subCMPB80, MICMPB80). Both setups contained a positive control of the bacterial growth (inoculum mixed with sterile TSB + 1% Glc medium) and a control monitoring microbial contamination (sterile medium). Non-treated wells were used as a positive control for comparison between non-treated and treated biofilm mass.
(§8) Prior to the imaging, the wells were stained with the LIVE/DEAD® BacLight™ Bacterial Viability Kit (Thermo Fisher Scientific, MA, USA) following the manufacturer’s guidelines and Drago et al.. […]

S. aureus 816 [4] = experiment: CLSM analysis, biofilm removal (preformed biofilm); format: cell-based, Staphylococcus aureus; conditions: for proportion of membrane-compromised cells: 20 h; for Thickness (µm) subCBM80: substance at subinhibitory concentration
Protocol: as §5, §6, §7, §8

[5] = preformed biofilm, 20 h exposure, mean ± SD

SMILES | MICMPB80 (S. aureus 1241 [1]) | maximal achieved inhibition (MICMPB80 not reached) (S. aureus 816 [2]; within tested concentrations) | MICMPB80 (S. aureus 816 [2]) | maximal achieved inhibition (MICBF80 not reached) (E. coli 693/17; within tested concentrations) | MICBF80 (E. coli 693/17) | maximal achieved inhibition (MICBF80 not reached) (E. coli 683/17; within tested concentrations) | MICBF80 (E. coli 683/17) | maximal achieved inhibition (MICBC80 not reached) (S. Infantis S59; within tested concentrations) | MICBC80 (S. Infantis S59) | Thickness (µm) MICBM80 (S. aureus 1241 [3]) | Thickness (µm) subCBM80 (S. aureus 1241 [3]) | proportion of membrane-compromised cells (S. aureus 816 [4]; subinhibitory concentration) | Thickness (µm) subCBM80 (S. aureus 816 [4]; [5]) | proportion of membrane-compromised cells (S. aureus 816 [4]; MIC) | Thickness (µm) MICBM80 (S. aureus 816 [4]; preformed biofilm, 20 h exposure, substance at its MIC, mean ± SD)
CC(=O)c1c(O)c(C)c(O)c2c1OC1=CC(=O)C(C(C)=O)C(=O)C12C (single isomer, unassigned; (+)) [UA, (+)-usnic acid] | 3.91 µg/mL | 67% | > 31.3 µg/mL | 47% | > 31.3 µg/mL | 10% | > 31.3 µg/mL | 31% | > 31.3 µg/mL | 210 ± 32.5 µm | 251 ± 15.7 µm | up to 40% | 152 ± 68.6 µm |  | 
CC(=O)N[C@@H](CS)C(=O)O [NAC, N-Acetyl-L-cysteine] | 6250 µg/mL |  | 12,500 µg/mL |  | 6250 µg/mL |  | 6250 µg/mL |  | 12,500 µg/mL | 253 ± 44.4 µm | 266 ± 37.9 µm |  | 247 ± 64.7 µm | up to 20% | 156 ± 80.4 µm
